Laboratory results published in ChEMBL document CHEMBL2073756, “Contribution of P-glycoprotein to bunitrolol efflux across blood-brain barrier” (Biopharm Drug Dispos, 1999).

Columns and labels:
[1] = target: ATP-dependent translocase ABCB1 (Homo sapiens, UniProt P08183); assay: TP_TRANSPORTER: intracellular accumulation in KB cell and KB-VJ300 cells; type: functional, cell-based
[2] = target: ATP-dependent translocase ABCB1 (Mus musculus, UniProt P21447); assay: TP_TRANSPORTER: increase in brain concentration in mdr1a(-/-) mouse; type: functional, organism-based; conditions: in vivo
Sequence of ATP-dependent translocase ABCB1 (Mus musculus, UniProt P21447) (P21447 whole entry): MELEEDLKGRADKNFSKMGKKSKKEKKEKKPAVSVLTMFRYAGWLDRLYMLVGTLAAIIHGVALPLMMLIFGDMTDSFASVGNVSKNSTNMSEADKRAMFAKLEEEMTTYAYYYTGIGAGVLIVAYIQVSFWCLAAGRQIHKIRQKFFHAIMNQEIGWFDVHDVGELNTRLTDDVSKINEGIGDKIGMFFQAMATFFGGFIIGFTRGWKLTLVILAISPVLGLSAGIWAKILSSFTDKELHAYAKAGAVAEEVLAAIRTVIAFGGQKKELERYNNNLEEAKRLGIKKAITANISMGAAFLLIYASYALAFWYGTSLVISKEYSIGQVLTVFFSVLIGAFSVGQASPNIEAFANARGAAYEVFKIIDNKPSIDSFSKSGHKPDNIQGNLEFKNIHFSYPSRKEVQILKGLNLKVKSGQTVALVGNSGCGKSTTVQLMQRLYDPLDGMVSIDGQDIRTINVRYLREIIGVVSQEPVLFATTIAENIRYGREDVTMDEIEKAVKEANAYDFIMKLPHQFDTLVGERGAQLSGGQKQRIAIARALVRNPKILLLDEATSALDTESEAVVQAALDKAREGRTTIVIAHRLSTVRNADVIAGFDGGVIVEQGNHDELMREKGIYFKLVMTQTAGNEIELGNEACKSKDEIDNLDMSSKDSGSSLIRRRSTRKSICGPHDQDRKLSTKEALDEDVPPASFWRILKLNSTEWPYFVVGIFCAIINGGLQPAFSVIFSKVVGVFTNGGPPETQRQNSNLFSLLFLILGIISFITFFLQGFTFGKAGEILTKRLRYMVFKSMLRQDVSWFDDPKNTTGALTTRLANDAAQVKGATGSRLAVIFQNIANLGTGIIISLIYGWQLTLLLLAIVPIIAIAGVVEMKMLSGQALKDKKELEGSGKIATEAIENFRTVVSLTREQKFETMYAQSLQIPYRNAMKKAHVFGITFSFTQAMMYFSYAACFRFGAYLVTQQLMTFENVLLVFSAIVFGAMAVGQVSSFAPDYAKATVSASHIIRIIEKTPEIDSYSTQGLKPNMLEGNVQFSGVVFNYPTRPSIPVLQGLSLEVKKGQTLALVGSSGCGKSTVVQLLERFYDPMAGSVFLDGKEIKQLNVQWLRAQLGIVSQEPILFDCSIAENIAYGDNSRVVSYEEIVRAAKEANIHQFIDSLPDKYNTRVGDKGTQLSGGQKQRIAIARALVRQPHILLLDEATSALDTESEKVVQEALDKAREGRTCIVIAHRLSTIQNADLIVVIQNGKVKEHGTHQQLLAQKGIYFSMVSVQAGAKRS

Sequence of ATP-dependent translocase ABCB1 (Homo sapiens, UniProt P08183) (P08183 whole entry): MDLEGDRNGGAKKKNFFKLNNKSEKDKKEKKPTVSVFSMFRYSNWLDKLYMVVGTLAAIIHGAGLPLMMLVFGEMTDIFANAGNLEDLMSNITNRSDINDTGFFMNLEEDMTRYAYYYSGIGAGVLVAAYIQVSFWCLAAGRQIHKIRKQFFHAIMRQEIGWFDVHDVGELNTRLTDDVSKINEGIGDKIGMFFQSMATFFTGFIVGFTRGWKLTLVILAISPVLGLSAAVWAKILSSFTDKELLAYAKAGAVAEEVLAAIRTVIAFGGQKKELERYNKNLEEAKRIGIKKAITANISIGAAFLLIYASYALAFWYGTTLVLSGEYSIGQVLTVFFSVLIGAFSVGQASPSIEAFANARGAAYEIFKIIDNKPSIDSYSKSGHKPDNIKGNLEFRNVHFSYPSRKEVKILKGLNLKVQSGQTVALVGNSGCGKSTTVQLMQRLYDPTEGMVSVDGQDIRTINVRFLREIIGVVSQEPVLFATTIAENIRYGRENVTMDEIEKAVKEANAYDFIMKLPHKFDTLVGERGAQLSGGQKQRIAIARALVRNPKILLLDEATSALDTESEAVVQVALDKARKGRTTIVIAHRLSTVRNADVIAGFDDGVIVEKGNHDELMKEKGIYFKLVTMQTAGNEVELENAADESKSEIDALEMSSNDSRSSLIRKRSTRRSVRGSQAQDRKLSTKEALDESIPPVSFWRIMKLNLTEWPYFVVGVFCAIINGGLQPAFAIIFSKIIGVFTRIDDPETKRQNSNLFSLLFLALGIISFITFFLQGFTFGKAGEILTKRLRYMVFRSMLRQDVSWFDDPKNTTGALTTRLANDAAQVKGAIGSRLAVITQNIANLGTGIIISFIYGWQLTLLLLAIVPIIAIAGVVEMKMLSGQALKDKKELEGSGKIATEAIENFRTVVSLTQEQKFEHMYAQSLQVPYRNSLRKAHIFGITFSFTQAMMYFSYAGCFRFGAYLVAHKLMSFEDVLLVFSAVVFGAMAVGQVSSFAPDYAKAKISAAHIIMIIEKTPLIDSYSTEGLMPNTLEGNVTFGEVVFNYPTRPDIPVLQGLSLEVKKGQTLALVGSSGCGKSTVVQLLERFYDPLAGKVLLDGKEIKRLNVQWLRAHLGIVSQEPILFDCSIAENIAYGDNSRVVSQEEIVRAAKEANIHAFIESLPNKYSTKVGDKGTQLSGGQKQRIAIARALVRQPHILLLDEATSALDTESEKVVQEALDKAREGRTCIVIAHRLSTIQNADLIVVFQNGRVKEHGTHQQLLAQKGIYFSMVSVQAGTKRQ

CC(C)(C)NCC(O)COc1ccccc1C#N (configuration not stated) [BUNITROLOL]
Activity [1]: substrate [+] | Activity [2]: substrate [+]
